Counter-ions that a name gives are not always drawn.
Tests used:
[1] = test system: Sprague Dawley rats; assay: Carrageenan-induced rat paw edema; type: in vivo; details: 30 mg/kg p.o. one hour before carrageenan; 1-6 h
Experimental: Female Sprague Dawley rats were used and compounds of the invention were injected i.p. or dosed orally prior to carrageenan exposure. An equal volume of vehicle (PBS) was administered to the control group. Edema in the paws was induced as previously described by injecting 50 μl of a 0.5% solution of carrageenan (Type TV Lambda, Sigma) in saline with a 27-G needle s.c. in the right foot pat. (See Whiteley P. E. and Dalrymple S. A. (1998), Models of inflammation: carrageenan-induced paw edema in the rat, in Current Protocols in Pharmacology. Enna Si, Williams M, Ferkany J W, Kenaki T, Porsolt R E and Sullivan J P, eds., pp 5.4.1-5.4.3, John Wiley & Sons, New York) The size of the tested foot of each animal was measured volumetrically, before induction of edema, and at 1, 2, 3, 4, and 6 hours after carrageenan induction, to screen for compounds which inhibit the development of edema as compared to control animals.
The results of an experiment where three compounds of Example 21, Table I (LJP 1379, LJP 1383, LJP 1406) were used are shown in FIG. 2A, FIG. 2B, and FIG. 2C. […] Paw volumes were recorded at the indicated times and expressed as percent of the volume before injection (100%). […] Paw volumes were recorded at the indicated times and expressed as percent of the volume before injection (100%). […]

[2] = target: T1, SSAO (Rattus norvegicus, UniProt O08590); assay: In vitro inhibition of SSAO activity, radiolabeled benzylamine procedure (rat lung homogenate); type: biochemical
T1 construct: SSAO activity in 100 ul of lung homogenate was determined radiochemically; from tissue; host or cells: rat lung homogenate (1000 g supernatant)
T1 sequence (O08590 1-763): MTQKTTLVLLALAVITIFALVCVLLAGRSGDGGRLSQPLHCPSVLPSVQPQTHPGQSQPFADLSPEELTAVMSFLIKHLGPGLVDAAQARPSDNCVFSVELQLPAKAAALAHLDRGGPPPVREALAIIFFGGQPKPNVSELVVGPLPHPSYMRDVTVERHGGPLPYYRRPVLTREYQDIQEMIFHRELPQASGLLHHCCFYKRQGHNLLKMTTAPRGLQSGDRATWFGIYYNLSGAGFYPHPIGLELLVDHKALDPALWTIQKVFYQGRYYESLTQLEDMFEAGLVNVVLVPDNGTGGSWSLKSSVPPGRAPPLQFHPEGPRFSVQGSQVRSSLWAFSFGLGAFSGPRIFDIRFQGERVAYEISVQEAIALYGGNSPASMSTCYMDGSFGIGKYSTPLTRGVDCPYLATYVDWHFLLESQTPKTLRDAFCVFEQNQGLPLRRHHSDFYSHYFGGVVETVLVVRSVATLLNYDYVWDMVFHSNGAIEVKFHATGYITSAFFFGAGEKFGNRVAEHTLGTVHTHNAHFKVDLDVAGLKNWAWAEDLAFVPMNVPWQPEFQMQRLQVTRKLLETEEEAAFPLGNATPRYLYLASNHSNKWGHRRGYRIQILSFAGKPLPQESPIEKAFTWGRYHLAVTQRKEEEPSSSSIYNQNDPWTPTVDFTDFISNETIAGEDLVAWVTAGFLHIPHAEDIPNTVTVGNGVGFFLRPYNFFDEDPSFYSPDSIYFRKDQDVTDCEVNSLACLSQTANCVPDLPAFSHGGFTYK

NCC(=O)NCc1cc(F)cc(C(F)(F)F)c1 [LJP 1383, 2-amino-N-(3-fluoro-5-trifluoromethylbenzyl)acetamide trifluoroacetate]
paw swelling (paw volume) [1]: significantly reduced the paw swelling at all time points tested
reversibility of inhibition of SSAO enzyme activity [2]: irreversible
